The values below come from US10407422B2, “Triazolopyridine inhibitors of myeloperoxidase” (priority 2015, dated 2019).

pIC50: −log10 of the molar value.

For assay [1], the target named is T1, myeloperoxidase (MPO) (Homo sapiens (Human), UniProt P05164). Nature of the assay: MPO peroxidation assay (Amplex Red assay). The class given is biochemical. The following applies: potency range class. In a few lines:
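IC50 values come from a four-parameter fit of rates taken from the linear 180-540 s portion of a 15 min kinetic read of resorufin (Ex 535/Em 590 nm). Amplex Red (200 μM) plus 10 mM H2O2 was added after a 10 min room-temperature preincubation of inhibitor with 200 pM MPO and 40 nM H2O2 in 100 mM KPi, pH 7.4.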

For assay [2], the target named is T1, myeloperoxidase (MPO). Nature of the assay: MPO chlorination assay (APF assay). The class given is biochemical. The following applies: potency range class. The method, boiled down:
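Chlorinating activity followed by APF cleavage to fluorescein (485/535 nm, 3 min kinetic read) after adding APF and 10 μM H2O2. Beforehand, 200 pM enzyme, compound and 120 mM NaCl sat 10 min at room temperature in 100 mM KPi, pH 7.4. Initial-rate slopes gave % inhibition; IC50 by Hill-slope fit.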

T1 sequence (P05164 49-745): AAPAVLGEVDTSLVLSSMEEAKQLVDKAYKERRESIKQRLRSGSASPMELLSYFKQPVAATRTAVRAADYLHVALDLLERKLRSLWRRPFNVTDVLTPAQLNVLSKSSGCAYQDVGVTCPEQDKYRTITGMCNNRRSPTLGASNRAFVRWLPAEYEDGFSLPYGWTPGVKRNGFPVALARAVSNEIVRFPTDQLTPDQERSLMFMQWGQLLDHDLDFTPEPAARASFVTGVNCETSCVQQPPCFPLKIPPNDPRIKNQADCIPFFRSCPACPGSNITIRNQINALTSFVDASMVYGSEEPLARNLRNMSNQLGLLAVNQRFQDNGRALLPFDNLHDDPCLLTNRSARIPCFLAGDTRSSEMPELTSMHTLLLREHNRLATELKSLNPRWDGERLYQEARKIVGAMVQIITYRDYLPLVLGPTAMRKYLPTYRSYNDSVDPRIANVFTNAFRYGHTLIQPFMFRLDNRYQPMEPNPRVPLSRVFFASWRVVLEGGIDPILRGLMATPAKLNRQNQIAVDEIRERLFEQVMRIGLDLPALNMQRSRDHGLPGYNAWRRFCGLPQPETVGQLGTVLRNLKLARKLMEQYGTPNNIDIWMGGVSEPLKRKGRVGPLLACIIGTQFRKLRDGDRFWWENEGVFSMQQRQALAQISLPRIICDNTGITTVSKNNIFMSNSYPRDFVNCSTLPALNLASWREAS

In general, pIC50 refers to −log10 of the IC50, conventionally taken in molar units. Regarding `CN(Cc1ncc[nH]1)C(=O)c1ccc(Cn2cc(Cc3cc(N)nc4[nH]nnc34)cn2)cc1` [Example 82, 4-{[4-({5-Amino-3H-[1,2,3]triazolo[4,5-b]pyridin-7-yl}methyl)-1H-pyrazol-1-yl]methyl}-N-(1H-imidazol-2-ylmethyl)-N-methylbenzamide], the negative-log IC50 (pIC50) against myeloperoxidase (MPO) [1] is 7.00 to 9.00; against myeloperoxidase (MPO) [2], 6.00 to 7.00.

In the case of `Nc1cc(Cc2cnn(Cc3cccc(-c4cnoc4)c3)c2)c2nn[nH]c2n1` [Example 157, 7-[(1-{[3-(1,2-Oxazol-4-yl)phenyl]methyl}-1H-pyrazol-4-yl)methyl]-3H-[1,2,3]triazolo[4,5-b]pyridin-5-amine], the pIC50 against myeloperoxidase (MPO) [1] and against myeloperoxidase (MPO) [2] was 6.00 to 7.00 each time.

`Nc1cc(Cn2nnc3ccc(Cc4ccccc4)cc32)c2nn[nH]c2n1` [Example 170, 7-[(6-Benzyl-1H-1,2,3-benzotriazol-1-yl)methyl]-3H-[1,2,3]triazolo[4,5-b]pyridin-5-amine]: the negative-log IC50 (pIC50) against myeloperoxidase (MPO) [1] and at myeloperoxidase (MPO) [2] was 6.00 to 7.00 throughout.

`Nc1cc(Cc2cnn(Cc3cc([C@@H]4CCNC4)cc(F)c3F)c2)c2nn[nH]c2n1` [Example 199, 7-{[1-({2,3-Difluoro-5-[(3S)-pyrrolidin-3-yl]phenyl}methyl)-1H-pyrazol-4-yl]methyl}-3H-[1,2,3]triazolo[4,5-b]pyridin-5-amine]: the negative logarithm of the IC50 (pIC50) on myeloperoxidase (MPO) [1] and at myeloperoxidase (MPO) [2] was 7.00 to 9.00 each time.

In the case of `Nc1cc(Cc2cnn(Cc3cccc(-n4cncn4)c3)c2)c2nn[nH]c2n1` [Example 178, 7-((1-(3-(1H-1,2,4-Triazol-1-yl)benzyl)-1H-pyrazol-4-yl)methyl)-3H-[1,2,3]triazolo[4,5-b]pyridin-5-amine], the pIC50 on myeloperoxidase (MPO) [1] was 7.00 to 9.00; against myeloperoxidase (MPO) [2], 6.00 to 7.00.

As to `Nc1cc(Cn2nnc3ccc(Cl)cc32)c2nn[nH]c2n1` [Example 167, 7-[(6-Chloro-1H-1,2,3-benzotriazol-1-yl)methyl]-3H-[1,2,3]triazolo[4,5-b]pyridin-5-amine], the negative logarithm of the IC50 (pIC50) on myeloperoxidase (MPO) [1] and against myeloperoxidase (MPO) [2] was 6.00 to 7.00 in each case.

With `Nc1cc(Cc2cnn(Cc3cc([C@@H]4CCNC4)ccc3C(F)(F)F)c2)c2nn[nH]c2n1` [Example 193, 7-{[1-({5-[(3S)-Pyrrolidin-3-yl]-2-(trifluoromethyl)phenyl}methyl)-1H-pyrazol-4-yl]methyl}-3H-[1,2,3]triazolo[4,5-b]pyridin-5-amine], the negative logarithm of the IC50 (pIC50) at myeloperoxidase (MPO) [1] is 7.00 to 9.00; against myeloperoxidase (MPO) [2] it was 6.00 to 7.00.

Take `CN1CCN(C(=O)c2ccc(Cn3cc(Cc4cc(N)nc5[nH]nnc45)cn3)cc2)CC1` [Example 85, 7-[(1-{[4-(4-Methylpiperazine-1-carbonyl)phenyl]methyl}-1H-pyrazol-4-yl)methyl]-3H-[1,2,3]triazolo[4,5-b]pyridin-5-amine]: the pIC50 against myeloperoxidase (MPO) [1] was 7.00 to 9.00; against myeloperoxidase (MPO) [2], 6.00 to 7.00.

For the compound `CC1CCN(S(=O)(=O)c2cccc(Cn3cc(Cc4cc(N)nc5[nH]nnc45)cn3)c2)CC1` [Example 139, 7-{[1-({3-[(4-Methylpiperidin-1-yl)sulfonyl]phenyl}methyl)-1H-pyrazol-4-yl]methyl}-3H-[1,2,3]triazolo[4,5-b]pyridin-5-amine], the pIC50 is 7.00 to 9.00 at myeloperoxidase (MPO) [1] and 6.00 to 7.00 at myeloperoxidase (MPO) [2].

`Nc1cc(Cc2cnn(Cc3cc(Cl)cc([C@@H]4CCNC4)c3)c2)c2nn[nH]c2n1` [Example 196, 7-{[1-({3-Chloro-5-[(3S)-pyrrolidin-3-yl]phenyl}methyl)-1H-pyrazol-4-yl]methyl}-3H-[1,2,3]triazolo[4,5-b]pyridin-5-amine]: the negative logarithm of the IC50 (pIC50) against myeloperoxidase (MPO) [1] and against myeloperoxidase (MPO) [2] was 7.00 to 9.00 in each case.

With `Nc1cc(Cc2cnn(Cc3cccc(OC4CCCNC4)c3)c2)c2nn[nH]c2n1` (centres unmarked) [Example 234, 7-[(1-{[3-(Piperidin-3-yloxy)phenyl]methyl}-1H-pyrazol-4-yl)methyl]-3H-[1,2,3]triazolo[4,5-b]pyridin-5-amine], the pIC50 at myeloperoxidase (MPO) [1] and against myeloperoxidase (MPO) [2] was 7.00 to 9.00 in each case.

For the compound `CS(=O)(=O)c1cccc(Cn2cc(Cc3cc(N)nc4[nH]nnc34)cn2)c1` [Example 122, 7-((1-(3-(Methylsulfonyl)benzyl)-1H-pyrazol-4-yl)methyl)-3H-[1,2,3]triazolo[4,5-b]pyridin-5-amine], the figures for the pIC50 at myeloperoxidase (MPO) [1] and against myeloperoxidase (MPO) [2] were 7.00 to 9.00 and 6.00 to 7.00, respectively.

As to `Nc1cc(Cc2cnn(-c3ccccc3F)c2)c2nn[nH]c2n1` [Example 4, 7-((1-(2-Fluorophenyl)-1H-pyrazol-4-yl)methyl)-3H-[1,2,3]triazolo[4,5-b]pyridin-5-amine], the pIC50 on myeloperoxidase (MPO) [1] and on myeloperoxidase (MPO) [2] was 7.00 to 9.00 each time.

Take `Nc1cc(Cc2cnn(Cc3cccc(OC4CC4)c3)c2)c2nn[nH]c2n1` [Example 98, 7-((1-(3-Cyclopropoxybenzyl)-1H-pyrazol-4-yl)methyl)-3H-[1,2,3]triazolo[4,5-b]pyridin-5-amine]: the negative logarithm of the IC50 (pIC50) against myeloperoxidase (MPO) [1] and at myeloperoxidase (MPO) [2] was 7.00 to 9.00 in each case.

Take `Nc1cc(Cc2cnn(Cc3ccc(CNC(=O)CN4CCCC4)cc3)c2)c2nn[nH]c2n1` [Example 253, N-[(4-{[4-({5-Amino-3H-[1,2,3]triazolo[4,5-b]pyridin-7-yl}methyl)-1H-pyrazol-1-yl]methyl}phenyl)methyl]-2-(pyrrolidin-1-yl)acetamide]: the pIC50 at myeloperoxidase (MPO) [1] and at myeloperoxidase (MPO) [2] was 6.00 to 7.00 throughout.

With `NCCN1Cc2ccc(Cn3cc(Cc4cc(N)nc5[nH]nnc45)cn3)cc2C1=O` [Example 258, 6-{[4-({5-Amino-3H-[1,2,3]triazolo[4,5-b]pyridin-7-yl}methyl)-1H-pyrazol-1-yl]methyl}-2-(2-aminoethyl)-2,3-dihydro-1H-isoindol-1-one], the negative logarithm of the IC50 (pIC50) against myeloperoxidase (MPO) [1] and against myeloperoxidase (MPO) [2] was 6.00 to 7.00 throughout.

As for `Nc1cc(Cc2cnn(Cc3ccc4c(c3)CNCC4)c2)c2nn[nH]c2n1` [Example 153, 7-{[1-(1,2,3,4-Tetrahydroisoquinolin-7-ylmethyl)-1H-pyrazol-4-yl]methyl}-3H-[1,2,3]triazolo[4,5-b]pyridin-5-amine], the pIC50 on myeloperoxidase (MPO) [1] and against myeloperoxidase (MPO) [2] was 7.00 to 9.00 each time.

On to `Nc1cc(Cc2cnn(Cc3ccc(F)c(Br)c3)c2)c2nn[nH]c2n1` [Example 277, 7-({1-[(3-Bromo-4-fluorophenyl)methyl]-1H-pyrazol-4-yl}methyl)-3H-[1,2,3]triazolo[4,5-b]pyridin-5-amine], for which the pIC50 at myeloperoxidase (MPO) [1] and against myeloperoxidase (MPO) [2] was 7.00 to 9.00 throughout.

With `Nc1cc(Cc2cnn(Cc3cccc(C4CCNCC4(F)F)c3)c2)c2nn[nH]c2n1` (centres unmarked) [Example 214, 7-[(1-{[3-(3,3-Difluoropiperidin-4-yl)phenyl]methyl}-1H-pyrazol-4-yl)methyl]-3H-[1,2,3]triazolo[4,5-b]pyridin-5-amine], the pIC50 against myeloperoxidase (MPO) [1] was 7.00 to 9.00; at myeloperoxidase (MPO) [2], 6.00 to 7.00.

Consider `Nc1cc(Cc2cnn(Cc3ccc(C(=O)NCCN4CCOCC4)cc3)c2)c2nn[nH]c2n1` [Example 75, 4-{[4-({5-Amino-3H-[1,2,3]triazolo[4,5-b]pyridin-7-yl}methyl)-1H-pyrazol-1-yl]methyl}-N-[2-(morpholin-4-yl)ethyl]benzamide], for which the negative logarithm of the IC50 (pIC50) on myeloperoxidase (MPO) [1] and against myeloperoxidase (MPO) [2] was 6.00 to 7.00 each time.

Regarding `Cc1cnc(CNC(=O)c2ccc(Cn3cc(Cc4cc(N)nc5[nH]nnc45)cn3)cc2)cn1` [Example 91, 4-{[4-({5-Amino-3H-[1,2,3]triazolo[4,5-b]pyridin-7-yl}methyl)-1H-pyrazol-1-yl]methyl}-N-[(5-methylpyrazin-2-yl)methyl]benzamide], the pIC50 against myeloperoxidase (MPO) [1] was 7.00 to 9.00; against myeloperoxidase (MPO) [2] it was 6.00 to 7.00.

As to `Nc1cc(Cc2cnn(Cc3ccc(-n4cccn4)cc3)c2)c2nn[nH]c2n1` [Example 56, 7-[(1-{[4-(1H-Pyrazol-1-yl)phenyl]methyl}-1H-pyrazol-4-yl)methyl]-3H-[1,2,3]triazolo[4,5-b]pyridin-5-amine], the pIC50 against myeloperoxidase (MPO) [1] is 7.00 to 9.00; at myeloperoxidase (MPO) [2] it was 6.00 to 7.00.

For the compound `Nc1cc(Cn2nnc3cc(Cc4ccccc4)ccc32)c2nn[nH]c2n1` [Example 171, 7-[(5-Benzyl-1H-1,2,3-benzotriazol-1-yl)methyl]-3H-[1,2,3]triazolo[4,5-b]pyridin-5-amine], the pIC50 on myeloperoxidase (MPO) [1] and against myeloperoxidase (MPO) [2] was 6.00 to 7.00 throughout.

Turning to `Nc1cc(Cc2cnn(Cc3cccc(Br)c3)c2)c2nn[nH]c2n1` [Example 101, 7-((1-(3-Bromobenzyl)-1H-pyrazol-4-yl)methyl)-3H-[1,2,3]triazolo[4,5-b]pyridin-5-amine], the negative-log IC50 (pIC50) at myeloperoxidase (MPO) [1] and against myeloperoxidase (MPO) [2] was 7.00 to 9.00 throughout.

Take `NCc1cccc(Cn2cc(Cc3cc(N)nc4[nH]nnc34)cn2)c1` [Example 249, 7-[(1-{[3-(Aminomethyl)phenyl]methyl}-1H-pyrazol-4-yl)methyl]-3H-[1,2,3]triazolo[4,5-b]pyridin-5-amine]: the pIC50 against myeloperoxidase (MPO) [1] was 7.00 to 9.00; at myeloperoxidase (MPO) [2] it was 6.00 to 7.00.

For `C[C@@H]1CN(c2cc(Cn3cc(Cc4cc(N)nc5[nH]nnc45)cn3)ccc2F)C[C@H](C)N1` [Example 226, 7-{[1-({3-[cis-3,5-Dimethylpiperazin-1-yl]-4-fluorophenyl}methyl)-1H-pyrazol-4-yl]methyl}-3H-[1,2,3]triazolo[4,5-b]pyridin-5-amine], the negative-log IC50 (pIC50) against myeloperoxidase (MPO) [1] is 7.00 to 9.00; at myeloperoxidase (MPO) [2], 6.00 to 7.00.

On to `Nc1cc(Cc2cnn(CC3Cc4ccccc4C3)c2)c2nn[nH]c2n1` [Example 118, 7-((1-((2,3-Dihydro-1H-inden-2-yl)methyl)-1H-pyrazol-4-yl)methyl)-3H-[1,2,3]triazolo[4,5-b]pyridin-5-amine], for which the pIC50 on myeloperoxidase (MPO) [1] and against myeloperoxidase (MPO) [2] was 7.00 to 9.00 in each case.

Take `N#Cc1ccc(Cn2cc(Cc3cc(N)nc4[nH]nnc34)cn2)cc1` [Example 271, 4-{[4-({5-Amino-3H-[1,2,3]triazolo[4,5-b]pyridin-7-yl}methyl)-1H-pyrazol-1-yl]methyl}benzonitrile]: the pIC50 against myeloperoxidase (MPO) [1] is 7.00 to 9.00; at myeloperoxidase (MPO) [2] it was 6.00 to 7.00.
